Data from US8119695B2, “Compounds and methods for treating breast cancer and other diseases” (City of Hope, priority 2003, dated 2012).

How the values were obtained:
Assay type in all cases: cell-based
MH100x4 = MH100x4 luciferase reporter without receptor
Excerpt: (§1) MH100x4 is a luciferase reporter with four copies of a GAL4 […] response element. GAL-L refers to the ligand-binding domain of the indicated receptor fused to the C-terminus of the GAL4 DNA binding domain.

ERRα (GAL-ERRa) = assay: MH100x4 luciferase reporter with GAL-ERRa; design: Reporter Activity: unit not given here
Excerpt: as §1

ERRβ (GAL-L-ERRb) = target: T1, ERRβ (GAL-L-ERRb) (Homo sapiens, UniProt O95718); assay: MH100x4 luciferase reporter with GAL-L-ERRb; design: Reporter Activity: unit not given here; settings: for inhibition of the activity of ERRβ: result in words
T1 construct: expressed in transfected cells
T1 sequence (O95718 208-432 limits assumed): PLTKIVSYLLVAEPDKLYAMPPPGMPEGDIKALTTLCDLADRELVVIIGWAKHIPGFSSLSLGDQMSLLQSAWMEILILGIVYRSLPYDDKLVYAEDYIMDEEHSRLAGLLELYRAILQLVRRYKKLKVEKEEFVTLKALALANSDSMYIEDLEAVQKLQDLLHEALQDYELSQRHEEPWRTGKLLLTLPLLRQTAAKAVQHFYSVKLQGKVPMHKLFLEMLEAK
Excerpt: as §1

ERRγ (GAL-ERRg) = assay: MH100x4 luciferase reporter with GAL-ERRg; design: Reporter Activity: unit not given here; settings: for inhibition of the activity of ERRγ: result in words
Excerpt: as §1

[1] = Table 4, DY39 dose head 0 (1st of 2), None 1
[2] = Table 4, DY39 dose head 0 (2nd of 2), None 1
[3] = Table 2, dose 5 (unit not given), None 1.00
[4] = Table 2, dose 5 (unit not given), None 8.54
[5] = Table 2, dose 5 (unit not given), None 1.44
[6] = Table 2, dose 5 (unit not given), None 1.25
[7] = Table 2, dose 5 (unit not given), None 0.49
[8] = Table 3, dose 2.5 (unit not given), None 1
[9] = Table 3, dose 2.5 (unit not given), None 8.18
[10] = Table 3, dose 2.5 (unit not given), None 2.38
[11] = Table 3, dose 2.5 (unit not given), None 2.2

CC(C)CC(=C(c1ccc(O)cc1)c1ccc(OCCN(C)C)cc1)c1ccccc1 (mixture of isomers) [DY39]
Fold Activation (MH100x4; [1]): 1.08
Reporter Activity (MH100x4; Table 4, DY39 dose head 0 (1st of 2), None 1.14): 1.23
Fold Activation (MH100x4; [2]): 0.89
Reporter Activity (MH100x4; Table 4, DY39 dose head 0 (2nd of 2), None 1.14): 1.02
Fold Activation (MH100x4; Table 4, dose 0.1 (unit not given), None 1/1.03): 0.96
Reporter Activity (MH100x4; Table 4, dose 0.1 (unit not given), None 1.14/1.17): 1.1
Fold Activation (MH100x4; Table 4, dose 0.3 (unit not given), None 1/1.03): 0.96
Reporter Activity (MH100x4; Table 4, dose 0.3 (unit not given), None 1.14/1.17): 1.09
Fold Activation (MH100x4; Table 4, dose 1 (unit not given), None 1/1.03): 0.8
Reporter Activity (MH100x4; Table 4, dose 1 (unit not given), None 1.14/1.17): 0.9
Fold Activation (MH100x4; Table 4, dose 3 (unit not given), None 1/1.03): 0.73
Reporter Activity (MH100x4; Table 4, dose 3 (unit not given), None 1.14/1.17): 0.83
Fold Activation (ERRα (GAL-ERRa); [1]): 1.09
Reporter Activity (ERRα (GAL-ERRa); Table 4, DY39 dose head 0 (1st of 2), None 27.7): 30.2
Fold Activation (ERRα (GAL-ERRa); [2]): 0.95
Reporter Activity (ERRα (GAL-ERRa); Table 4, DY39 dose head 0 (2nd of 2), None 27.7): 26.4
Fold Activation (ERRα (GAL-ERRa); Table 4, dose 0.1 (unit not given), None 1/1.23): 1.08
Reporter Activity (ERRα (GAL-ERRa); Table 4, dose 0.1 (unit not given), None 27.7/34.05): 30
Fold Activation (ERRα (GAL-ERRa); Table 4, dose 0.3 (unit not given), None 1/1.23): 1.09
Reporter Activity (ERRα (GAL-ERRa); Table 4, dose 0.3 (unit not given), None 27.7/34.05): 30.1
Fold Activation (ERRα (GAL-ERRa); Table 4, dose 1 (unit not given), None 1/1.23): 1.2
Reporter Activity (ERRα (GAL-ERRa); Table 4, dose 1 (unit not given), None 27.7/34.05): 33
Fold Activation (ERRα (GAL-ERRa); Table 4, dose 3 (unit not given), None 1/1.23): 1.31
Reporter Activity (ERRα (GAL-ERRa); Table 4, dose 3 (unit not given), None 27.7/34.05): 36.2
Fold Activation (ERRβ (GAL-L-ERRb); [1]): 1.25
Reporter Activity (ERRβ (GAL-L-ERRb); Table 4, DY39 dose head 0 (1st of 2), None 7.21): 9.02
Fold Activation (ERRβ (GAL-L-ERRb); [2]): 1.04
Reporter Activity (ERRβ (GAL-L-ERRb); Table 4, DY39 dose head 0 (2nd of 2), None 7.21): 7.53
Fold Activation (ERRβ (GAL-L-ERRb); Table 4, dose 0.1 (unit not given), None 1/1.2): 1.2
Reporter Activity (ERRβ (GAL-L-ERRb); Table 4, dose 0.1 (unit not given), None 7.21/8.67): 8.63
Fold Activation (ERRβ (GAL-L-ERRb); Table 4, dose 0.3 (unit not given), None 1/1.2): 0.95
Reporter Activity (ERRβ (GAL-L-ERRb); Table 4, dose 0.3 (unit not given), None 7.21/8.67): 6.84
Fold Activation (ERRβ (GAL-L-ERRb); Table 4, dose 1 (unit not given), None 1/1.2): 0.4
Reporter Activity (ERRβ (GAL-L-ERRb); Table 4, dose 1 (unit not given), None 7.21/8.67): 2.9
Fold Activation (ERRβ (GAL-L-ERRb); Table 4, dose 3 (unit not given), None 1/1.2): 0.28
Reporter Activity (ERRβ (GAL-L-ERRb); Table 4, dose 3 (unit not given), None 7.21/8.67): 1.99
inhibition of the activity of ERRβ (ERRβ (GAL-L-ERRb)): inhibit the activity
Fold Activation (ERRγ (GAL-ERRg); [1]): 0.94
Reporter Activity (ERRγ (GAL-ERRg); Table 4, DY39 dose head 0 (1st of 2), None 5.49): 5.14
Fold Activation (ERRγ (GAL-ERRg); [2]): 0.96
Reporter Activity (ERRγ (GAL-ERRg); Table 4, DY39 dose head 0 (2nd of 2), None 5.49): 5.25
Fold Activation (ERRγ (GAL-ERRg); Table 4, dose 0.1 (unit not given), None 1/1.01): 0.94
Reporter Activity (ERRγ (GAL-ERRg); Table 4, dose 0.1 (unit not given), None 5.49/5.56): 5.18
Fold Activation (ERRγ (GAL-ERRg); Table 4, dose 0.3 (unit not given), None 1/1.01): 0.91
Reporter Activity (ERRγ (GAL-ERRg); Table 4, dose 0.3 (unit not given), None 5.49/5.56): 4.97
Fold Activation (ERRγ (GAL-ERRg); Table 4, dose 1 (unit not given), None 1/1.01): 0.5
Reporter Activity (ERRγ (GAL-ERRg); Table 4, dose 1 (unit not given), None 5.49/5.56): 2.7
Fold Activation (ERRγ (GAL-ERRg); Table 4, dose 3 (unit not given), None 1/1.01): 0.3
Reporter Activity (ERRγ (GAL-ERRg); Table 4, dose 3 (unit not given), None 5.49/5.56): 1.67
inhibition of the activity of ERRγ (ERRγ (GAL-ERRg)): inhibit the activity

CCCCCCCCCCCCOc1ccc(/C(CC)=C(\CC)c2ccc(O)cc2)cc1 [DY14]
Fold Activation (ERRα (GAL-ERRa); [3]): 1.01
Reporter Activity (ERRα (GAL-ERRa); [4]): 8.63
Fold Activation (ERRβ (GAL-L-ERRb); [3]): 0.96
Reporter Activity (ERRβ (GAL-L-ERRb); [5]): 1.38
Fold Activation (ERRγ (GAL-ERRg); [3]): 1.10
Reporter Activity (ERRγ (GAL-ERRg); [6]): 1.38

CCCCCCCCCCCCOc1ccc(C(CC)=C(CC)c2ccc(OCCCCCCCCCCCC)cc2)cc1 [DY15]
Reporter Activity (MH100x4; [7]): 0.4
Fold Activation (MH100x4; [3]): 0.82
Fold Activation (ERRα (GAL-ERRa); [3]): 0.83
Reporter Activity (ERRα (GAL-ERRa); [4]): 7.06
Fold Activation (ERRβ (GAL-L-ERRb); [3]): 0.69
Reporter Activity (ERRβ (GAL-L-ERRb); [5]): 1
Fold Activation (ERRγ (GAL-ERRg); [3]): 0.89
Reporter Activity (ERRγ (GAL-ERRg); [6]): 1.11

CCC(=C(CC)c1ccc(O)c(C=C(C)C)c1)c1ccc(O)cc1 [DY16]
Reporter Activity (MH100x4; [7]): 0.35
Fold Activation (MH100x4; [3]): 0.71
Fold Activation (ERRα (GAL-ERRa); [3]): 0.66
Reporter Activity (ERRα (GAL-ERRa); [4]): 5.63
Fold Activation (ERRβ (GAL-L-ERRb); [3]): 0.49
Reporter Activity (ERRβ (GAL-L-ERRb); [5]): 0.71
Fold Activation (ERRγ (GAL-ERRg); [3]): 0.91
Reporter Activity (ERRγ (GAL-ERRg); [6]): 1.14

CCC(=C(CC)c1ccc(O)c(C(C)C)c1)c1ccc(O)cc1 [DY17]
Reporter Activity (MH100x4; [7]): 0.39
Fold Activation (MH100x4; [3]): 0.80
Fold Activation (ERRα (GAL-ERRa); [3]): 0.61
Reporter Activity (ERRα (GAL-ERRa); [4]): 5.18
Fold Activation (ERRβ (GAL-L-ERRb); [3]): 0.53
Reporter Activity (ERRβ (GAL-L-ERRb); [5]): 0.76
Fold Activation (ERRγ (GAL-ERRg); [3]): 0.73
Reporter Activity (ERRγ (GAL-ERRg); [6]): 0.91

CCC(=C(CC)c1ccc(O)c(C(C)(C)C)c1)c1ccc(O)cc1 [DY18]
Reporter Activity (MH100x4; [7]): 0.26
Fold Activation (MH100x4; [3]): 0.53
Fold Activation (ERRα (GAL-ERRa); [3]): 0.40
Reporter Activity (ERRα (GAL-ERRa); [4]): 3.39
Fold Activation (ERRβ (GAL-L-ERRb); [3]): 0.42
Reporter Activity (ERRβ (GAL-L-ERRb); [5]): 0.6
Fold Activation (ERRγ (GAL-ERRg); [3]): 0.58
Reporter Activity (ERRγ (GAL-ERRg); [6]): 0.73

CCC(=C(CC)c1ccc(Oc2cccc(C=O)c2)cc1)c1ccc(O)cc1 [DY19]
Reporter Activity (MH100x4; [7]): 0.37
Fold Activation (MH100x4; [3]): 0.76
Fold Activation (ERRα (GAL-ERRa); [3]): 0.62
Reporter Activity (ERRα (GAL-ERRa); [4]): 5.27
Fold Activation (ERRβ (GAL-L-ERRb); [3]): 0.58
Reporter Activity (ERRβ (GAL-L-ERRb); [5]): 0.84
Fold Activation (ERRγ (GAL-ERRg); [3]): 0.82
Reporter Activity (ERRγ (GAL-ERRg); [6]): 1.02

C=CCOc1ccc(C(CC)=C(CC)c2ccc(OCC=C)cc2)cc1 [DY20]
Reporter Activity (MH100x4; [7]): 0.35
Fold Activation (MH100x4; [3]): 0.71
Fold Activation (ERRα (GAL-ERRa); [3]): 0.75
Reporter Activity (ERRα (GAL-ERRa); [4]): 6.39
Fold Activation (ERRβ (GAL-L-ERRb); [3]): 0.70
Reporter Activity (ERRβ (GAL-L-ERRb); [5]): 1.01
Fold Activation (ERRγ (GAL-ERRg); [3]): 0.81
Reporter Activity (ERRγ (GAL-ERRg); [6]): 1.01

CCC(=C(c1ccc(OC2CCCCO2)cc1)c1ccc(OC2CCCCO2)cc1)c1ccccc1 (stereo not shown) [DY26]
Fold Activation (ERRα (GAL-ERRa); [8]): 1.15
Reporter Activity (ERRα (GAL-ERRa); [9]): 9.38
Fold Activation (ERRβ (GAL-L-ERRb); [8]): 1.01
Reporter Activity (ERRβ (GAL-L-ERRb); [10]): 2.4
Fold Activation (ERRγ (GAL-ERRg); [8]): 0.99
Reporter Activity (ERRγ (GAL-ERRg); [11]): 2.17

CC/C(=C(/c1ccc(OCCN(C)C)cc1)c1ccc(OC(C)=O)cc1)c1ccccc1 [DY28, (E,Z)-4-{1-[4-(2-dimethylamino-ethoxy)-phenyl]-2-phenyl-but-1-enyl}-phenyl acetate]
Fold Activation (ERRα (GAL-ERRa); [8]): 0.99
Reporter Activity (ERRα (GAL-ERRa); [9]): 8.08
Fold Activation (ERRβ (GAL-L-ERRb); [8]): 0.08
Reporter Activity (ERRβ (GAL-L-ERRb); [10]): 0.2
inhibition of the activity of ERRβ (ERRβ (GAL-L-ERRb)): inhibit the activity
Fold Activation (ERRγ (GAL-ERRg); [8]): 0.11
Reporter Activity (ERRγ (GAL-ERRg); [11]): 0.25
inhibition of the activity of ERRγ (ERRγ (GAL-ERRg)): inhibit the activity

CN(C)CCOc1ccc(/C(=C(/CCCl)c2ccccc2)c2ccc(O)cc2)cc1 [DY33]
Reporter Activity (ERRγ (GAL-ERRg); [11]): 0.58

CC(C)/C(=C(\c1ccc(O)cc1)c1ccc(OCN(C)C)cc1)c1ccccc1 [DY35, (Z)-4-[1-(4-Dimethylaminomethoxy-phenyl)-3-methyl-2-phenyl-but-1-enyl]-phenol]
Fold Activation (ERRα (GAL-ERRa); [8]): 0.78
Reporter Activity (ERRα (GAL-ERRa); [9]): 6.38
Fold Activation (ERRβ (GAL-L-ERRb); [8]): 0.14
Reporter Activity (ERRβ (GAL-L-ERRb); [10]): 0.34
inhibition of the activity of ERRβ (ERRβ (GAL-L-ERRb)): inhibit the activity
Fold Activation (ERRγ (GAL-ERRg); [8]): 0.15
Reporter Activity (ERRγ (GAL-ERRg); [11]): 0.34
inhibition of the activity of ERRγ (ERRγ (GAL-ERRg)): inhibit the activity
